Laboratory results published in patent US12655116B2, “Substituted isophthalic acid diamides” (Bayer Aktiengesellschaft, priority 2020, dated 2026).

Assays:
[1] = system: ABUTH; experiment: Pre-emergence herbicidal action against ABUTH; format: in vivo, Abutilon theophrasti
Summary of the method: (§1)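 Herbicidal effect was assessed 3 weeks after treatment by visual comparison with untreated controls, 100% denoting dead plants. Aqueous WP or EC preparations had been applied at 600 to 800 l/ha with 0.2% wetting agent to the soil covering freshly sown seeds.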

[2] = system: ALOMY; experiment: Pre-emergence herbicidal action against ALOMY; format: in vivo, Alopecurus myosuroides; settings: pre-emergence; for pest or weed control at 80 g/ha / pest or weed control at 20 g/ha: Alopecurus myosuroides, 504 h; for pest or weed control at 20 g/ha: scored visually after 3 weeks, 100% = plants have died, 0% = like control plants
Summary of the method: as §1

[3] = system: AMARE; experiment: Pre-emergence herbicidal action against AMARE; format: in vivo, Amaranthus retroflexus; settings: for pest or weed control at 20 g/ha / pest or weed control at 80 g/ha: Amaranthus retroflexus, 504 h
Summary of the method: as §1

[4] = system: ECHCG; experiment: Pre-emergence herbicidal action against ECHCG; format: in vivo, Echinochloa crus-galli
Summary of the method: as §1

[5] = system: LOLRI; experiment: Pre-emergence herbicidal action against LOLRI; format: in vivo, Lolium rigidum; settings: 80 g/ha; for pest or weed control at 80 g/ha: Lolium rigidum, 504 h
Summary of the method: as §1

[6] = system: MATIN; experiment: Pre-emergence herbicidal action against MATIN; format: in vivo, Matricaria inodora; settings: for pest or weed control at 20 g/ha / pest or weed control at 80 g/ha: Tripleurospermum inodorum, 504 h
Summary of the method: as §1

[7] = system: POLCO; experiment: Pre-emergence herbicidal action against POLCO; format: in vivo, Polygonum convolvulus; settings: dosage 80 g/ha
Summary of the method: as §1

[8] = system: SETVI; experiment: Pre-emergence herbicidal action against SETVI; format: in vivo, Setaria viridis; settings: dosage 80 g/ha; for pest or weed control at 80 g/ha: Setaria viridis, 504 h
Summary of the method: as §1

[9] = system: VERPE; experiment: Pre-emergence herbicidal action against VERPE; format: in vivo, Veronica persica
Summary of the method: as §1

[10] = system: VIOTR; experiment: Pre-emergence herbicidal action against VIOTR; format: in vivo, Viola tricolor
Summary of the method: as §1

[11] = system: DIGSA; experiment: Pre-emergence herbicidal action against DIGSA; format: in vivo, Digitaria sanguinalis
Summary of the method: as §1

[12] = system: ABUTH; experiment: Post-emergence herbicidal action against ABUTH; format: in vivo, Abutilon theophrasti; settings: visual assessment about 3 weeks after treatment vs untreated controls; for pest or weed control at 5 g/ha / pest or weed control at 20 g/ha: Abutilon theophrasti, 504 h; for pest or weed control at 5 g/ha: dosage 5 g/ha
Summary of the method: (§2)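 Post-emergence greenhouse test; one-leaf stage, 2–3 wk post-sowing, sandy loam. Foliar spray of WP/EC in water, 600–800 l/ha, +0.2% wetting agent. Visual % action at ~3 wk vs untreated (100% = plants dead).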

[13] = system: ALOMY; experiment: Post-emergence herbicidal action against ALOMY; format: in vivo, Alopecurus myosuroides; settings: visual assessment about 3 weeks after treatment vs untreated controls
Summary of the method: as §2

[14] = system: AMARE; experiment: Post-emergence herbicidal action against AMARE; format: in vivo, Amaranthus retroflexus; settings: 20 g/ha, visual assessment about 3 weeks after treatment, 100% = plants have died, 0% = like control plants; for pest or weed control at 20 g/ha: Amaranthus retroflexus, 504 h
Summary of the method: as §2

[15] = system: ECHCG; experiment: Post-emergence herbicidal action against ECHCG; format: in vivo, Echinochloa crus-galli
Summary of the method: as §2

[16] = system: PHBPU; experiment: Post-emergence herbicidal action against PHBPU; format: in vivo, Pharbitis purpurea
Summary of the method: as §2

[17] = system: SETVI; experiment: Post-emergence herbicidal action against SETVI; format: in vivo, Setaria viridis; settings: for pest or weed control at 5 g/ha / pest or weed control at 20 g/ha: Setaria viridis, 504 h; for pest or weed control at 5 g/ha: dosage 5 g/ha
Summary of the method: as §2

[18] = system: VERPE; experiment: Post-emergence herbicidal action against VERPE; format: in vivo, Veronica persica; settings: 20 g/ha
Summary of the method: as §2

[19] = system: VIOTR; experiment: Post-emergence herbicidal action against VIOTR; format: in vivo, Viola tricolor
Summary of the method: as §2

[20] = system: DIGSA; experiment: Post-emergence herbicidal action against DIGSA; format: in vivo, Digitaria sanguinalis
Summary of the method: as §2

[21] = system: AVEFA; experiment: Pre-emergence herbicidal action against AVEFA; format: in vivo, Avena fatua; settings: Avena fatua, 504 h, pre-emergence
Summary of the method: as §1

[22] = system: PHBPU; experiment: Pre-emergence herbicidal action against PHBPU; format: in vivo, Pharbitis purpurea; settings: Ipomoea purpurea, 504 h, dosage 80 g/ha
Summary of the method: as §1

[23] = system: MATIN; experiment: Post-emergence herbicidal action against MATIN; format: in vivo, Matricaria inodora; settings: Tripleurospermum inodorum, 504 h, dosage 20 g/ha
Summary of the method: as §2

[24] = 80 g/ha, scored visually after 3 weeks vs untreated controls (100% = plants have died, 0% = like control plants)
[25] = 20 g/ha, scored visually after 3 weeks vs untreated controls, 100% = plants have died, 0% = like control plants
[26] = Abutilon theophrasti, 504 h, 80 g/ha, scored visually after 3 weeks vs untreated controls (100% = plants have died, 0% = like control plants)
[27] = 80 g/ha, scored visually after 3 weeks vs untreated controls, 100% = plants have died, 0% = like control plants
[28] = Echinochloa crus-galli, 504 h, 80 g/ha
[29] = Veronica persica, 504 h, dosage 80 g/ha
[30] = Viola tricolor, 504 h, dosage 80 g/ha
[31] = Alopecurus myosuroides, 504 h, dosage 20 g/ha
[32] = Ipomoea purpurea, 504 h, dosage 20 g/ha

Cc1c(C(=O)Nc2nnnn2C)ccc(C(F)F)c1C(=O)NCC1CC1 [Example 1-47]
Pre-emergence action against ABUTH (herbicidal activity) [1, 24]: 100%
Pre-emergence action against ABUTH (herbicidal activity in percent) ([1]; dosage 20 g/ha, scored visually after 3 weeks vs untreated controls, 100% = plants have died, 0% = like control plants): 100%
Pre-emergence action against ALOMY (herbicidal activity) [2, 24]: 90%
Pre-emergence action against AMARE in % [3, 25]: 100%
Pre-emergence action against AMARE in % [3, 24]: 100%
Pre-emergence action against ECHCG in % ([4]; 80 g/ha): 100%
Pre-emergence action against LOLRI in % [5]: 80%
Pre-emergence action against MATIN in % ([6]; dosage 20 g/ha): 80%
Pre-emergence action against MATIN in % ([6]; dosage 80 g/ha): 100%
Pre-emergence action against POLCO in % [7]: 100%
Pre-emergence action against SETVI in % [8]: 100%
Pre-emergence action against VERPE in % ([9]; dosage 80 g/ha): 100%
Pre-emergence action against VIOTR in % ([10]; dosage 80 g/ha): 100%
Pre-emergence action against DIGSA in % ([11]; dosage 20 g/ha): 100%
Pre-emergence action against DIGSA in % ([11]; dosage 80 g/ha): 100%
Post-emergence action against ABUTH in % ([12]; dosage 20 g/ha): 80%
Post-emergence action against ALOMY in % ([13]; dosage 5 g/ha): 80%
Post-emergence action against ALOMY in % ([13]; dosage 20 g/ha): 90%
Post-emergence action at 20 g/ha against AMARE in % [14]: 90%
Post-emergence action against ECHCG in % ([15]; dosage 5 g/ha): 90%
Post-emergence action against ECHCG in % ([15]; dosage 20 g/ha): 90%
Post-emergence action against PHBPU in % ([16]; dosage 5 g/ha): 80%
Post-emergence action against PHBPU in % ([16]; dosage 20 g/ha): 90%
Post-emergence action against SETVI in % ([17]; dosage 20 g/ha): 80%
Post-emergence action against VERPE in % [18]: 80%
Post-emergence action against VIOTR in % ([19]; 20 g/ha): 80%
Post-emergence action against DIGSA ([20]; 20 g/ha): 90%

CCNC(=O)c1c(Br)ccc(C(=O)Nc2nnnn2CC)c1Br [Example 2-342]
pest or weed control at 80 g/ha [1, 26]: 100%
pest or weed control at 20 g/ha ([1]; Abutilon theophrasti, 504 h, dosage 20 g/ha, scored visually after 3 weeks vs untreated controls, 100% = plants have died, 0% = like control plants, read-out: Pre-emergence action against ABUTH (herbicidal activity in percent)): 100%
pest or weed control at 80 g/ha [2, 24]: 100%
pest or weed control at 20 g/ha [2]: 90%
pest or weed control at 20 g/ha [3, 25]: 90%
pest or weed control at 80 g/ha [3, 27]: 100%
pest or weed control at 80 g/ha [21]: 90%
pest or weed control at 80 g/ha [4, 28]: 80%
pest or weed control at 80 g/ha [5]: 80%
pest or weed control at 20 g/ha ([6]; dosage 20 g/ha): 90%
pest or weed control at 80 g/ha ([6]; dosage 80 g/ha): 100%
pest or weed control at 80 g/ha ([7]; Fallopia convolvulus, 504 h): 80%
pest or weed control at 80 g/ha [8]: 100%
pest or weed control at 20 g/ha ([9]; Veronica persica, 504 h, dosage 20 g/ha): 80%
pest or weed control at 80 g/ha [9, 29]: 80%
pest or weed control at 20 g/ha ([10]; Viola tricolor, 504 h, dosage 20 g/ha): 90%
pest or weed control at 80 g/ha [10, 30]: 100%
pest or weed control at 5 g/ha [12]: 80%
pest or weed control at 20 g/ha ([12]; dosage 20 g/ha): 90%
pest or weed control at 5 g/ha ([13]; Alopecurus myosuroides, 504 h, dosage 5 g/ha): 90%
pest or weed control at 20 g/ha [13, 31]: 90%
pest or weed control at 20 g/ha [14]: 100%
pest or weed control at 5 g/ha ([16]; Ipomoea purpurea, 504 h, dosage 5 g/ha): 80%
pest or weed control at 20 g/ha [16, 32]: 90%
pest or weed control at 5 g/ha [17]: 90%
pest or weed control at 20 g/ha ([17]; dosage 20 g/ha): 90%
pest or weed control at 20 g/ha ([19]; Viola tricolor, 504 h, 20 g/ha): 80%

CNC(=O)c1c(Br)ccc(C(=O)Nc2nnnn2C)c1Cl [Example 1-177]
pest or weed control at 80 g/ha [1, 26]: 100%
pest or weed control at 80 g/ha [2, 24]: 100%
pest or weed control at 20 g/ha [2]: 80%
pest or weed control at 20 g/ha [3, 25]: 100%
pest or weed control at 80 g/ha [3, 27]: 100%
pest or weed control at 80 g/ha [21]: 100%
pest or weed control at 20 g/ha ([21]; 20 g/ha, scored visually after 3 weeks, 100% = plants have died, 0% = like control plants): 80%
pest or weed control at 20 g/ha ([4]; Echinochloa crus-galli, 504 h, 20 g/ha): 80%
pest or weed control at 80 g/ha [4, 28]: 100%
pest or weed control at 80 g/ha [5]: 90%
pest or weed control at 20 g/ha ([6]; dosage 20 g/ha): 90%
pest or weed control at 80 g/ha ([6]; dosage 80 g/ha): 100%
pest or weed control at 80 g/ha [22]: 80%
pest or weed control at 80 g/ha [8]: 100%
pest or weed control at 80 g/ha [9, 29]: 100%
pest or weed control at 80 g/ha [10, 30]: 100%
pest or weed control at 20 g/ha ([11]; Digitaria sanguinalis, 504 h, dosage 20 g/ha): 100%
pest or weed control at 80 g/ha ([11]; Digitaria sanguinalis, 504 h, dosage 80 g/ha): 100%
pest or weed control at 5 g/ha [12]: 90%
pest or weed control at 20 g/ha ([12]; dosage 20 g/ha): 90%
pest or weed control at 20 g/ha [13, 31]: 90%
pest or weed control at 20 g/ha [14]: 100%
pest or weed control at 20 g/ha ([15]; Echinochloa crus-galli, 504 h, dosage 20 g/ha): 90%
pest or weed control at 20 g/ha [23]: 90%
pest or weed control at 20 g/ha [16, 32]: 80%
pest or weed control at 5 g/ha [17]: 90%
pest or weed control at 20 g/ha ([17]; dosage 20 g/ha): 90%
pest or weed control at 20 g/ha ([18]; Veronica persica, 504 h): 80%
pest or weed control at 5 g/ha ([19]; Viola tricolor, 504 h, 5 g/ha): 90%
pest or weed control at 20 g/ha ([19]; Viola tricolor, 504 h, 20 g/ha): 90%
pest or weed control at 5 g/ha ([20]; Digitaria sanguinalis, 504 h, 5 g/ha): 90%
pest or weed control at 20 g/ha ([20]; Digitaria sanguinalis, 504 h, 20 g/ha): 90%
